Source: US7429602B2, “Treating conjunctivitis by topically administering an epinastine solution to the conjunctiva” (Boehringer Ingelheim Pharma GmbH & Co. Kg, priority 1999, dated 2008)

Test system: conjunctiva (eosinophils, neutrophils, mast cell degranulation)
Conditions: conjunctiva examined two hours after ovalbumin
Method: 72 hours after the rats have been sensitized by injecting antiserum into the eyelids of the test animals, a fresh provocation was induced in them by intravenous administration of ovalbumin. Some of the experimental animals were pretreated by the administration of solution containing epinastine according to the invention into the conjunctival sac 15 minutes before the ovalbumin is administered. Two hours after the administration of ovalbumin the experimental animals were killed and the conjunctiva was investigated for its content of eosinophils and neutrophils and the mast cell granulation was determined.

[1] = epinastine solution into the conjunctival sac 15 minutes before i.v. ovalbumin, p<0.01

In the case of NC1=NCC2c3ccccc3Cc3ccccc3N12 (stereo not drawn) [epinastine, 3-amino-9,13b-dihydro-1H-dibenz-[c,f]imidazol[1,5-a]azepine], the “content of eosinophils in conjunctiva” value (epinastine solution 0.05-0.5% into the conjunctival sac 15 minutes before i.v. ovalbumin) is reported as “significantly lower”, the “content of lymphocytes in conjunctiva” value [1] is reported as “significantly lower” and the “inhibition of mast cell degranulation” value [1] is reported as “roughly 35%”.
